Molecules are shown by their SMILES. Bounds are passed on as bounds.

Experiment [1] concerns phosphorylated myosin regulatory light chain. As to the kind of experiment: Action on amount of phosphorylated myosin regulatory light chain in the cells (Test Example 1). The note with it: Homo sapiens, Neutrophil, 5 min, human neutrophils; reaction with test compound at 25° C. for 5 minutes; read-out: Inhibition of myosin regulatory light chain phosphorylation (IC50: μM). The format is cell-based. As to the method:
A volume of 50 to 100 ml of peripheral blood collected from healthy volunteers was centrifuged by using Mono-Poly separator solution (Dainippon Pharmaceutical) to prepare a neutrophil containing fraction. The neutrophils were washed with PBS(−) and resuspended in Hanks' Balanced Salt Solution (HBSS+, Gibco) to prepare a cell suspension (8×10^6/ml). The cell suspension was diluted to 5×10^6/ml, introduced into Eppendorf tubes in a volume of 0.4 ml each, then 0.1 ml each of solutions of a test compound at various concentrations were added to the suspension and allowed to react at 25° C. for 5 minutes. […]
The gel after the electrophoresis was blotted on a nitrocellulose membrane (BioRad), blocked with 5% skim milk, and reacted successively with antibodies pLC1 (Sakurada K. et al, Am. J. Physiol., 274, C1563–C1572 (1998)), which specifically recognize the phosphorylated myosin regulatory light chain, and donkey anti-mouse IgG (Chemicon) conjugated with horseradish peroxidase (HRP-labeled). The band of the phosphorylated myosin regulatory light chain was detected on a film by using ECL Plus Kit (Amersham Pharmacia Biotech). This band was subjected to quantification using a densitometer. By using this value, the inhibitory ratio (%) for phosphorylation of the myosin regulatory light chain was calculated by using the following equation. […]

Experiment [2] has as its system neutrophils. As to the kind of experiment: Neutrophil migration inhibitory action (Test Example 5). It is filed as cell-based. To be noted: Homo sapiens, 0.5 h, FMLP 1 μM, Boyden Chamber, 37° C., 30 minutes, read-out: Neutrophil migration inhibition IC50. As to the method:
Neutrophils were isolated from 50 to 100 ml of peripheral blood collected from healthy donors by the method described in Test Example 1 to obtain a cell suspension (8×10^6/ml). Subsequently, solutions of a test compound at various concentrations were introduced into wells of a 96-well plate in a volume of 125 μl per well, the cell suspension of an equivalent volume was added to it and the plate was preincubated at room temperature for 5 minutes. During the preincubation, FMLP (1 μM, Sigma) solution was added to the lower chamber to set Boyden Chamber, the preincubated cell suspension was added to the upper chamber in a volume of 200 μl per well, and the cells were allowed to migrate at 37° C. under 5% carbon dioxide for 30 minutes. The filter after the migration was collected, and the non-migrated cells adhered to the surface that faced the upper chamber were carefully wiped off. Then, the migrated cells on the back surface were stained with DifQuick dye solution (International Reagents), washed with water and dried, and then absorbance was measured at 595 nm. The inhibition ratio against migration (%) of a test compound was calculated by using the following equation: Migration inhibition ratio (%)=(1−Absorbance of the group with addition of test compound/Absorbance of the group without addition of test compound)×100 […]

Experiment [3] has as its system thoracic aorta constricted with phenylephrine. As to the kind of experiment: Vasoconstriction inhibitory action (Test Example 2). More on the design: species or system Rats (Wistar). The note with it: for vasoconstriction inhibitory action: result in words, rat thoracic aorta, phenylephrine. The source says: Rats (Wistar, 11-week old) were bleeded to death and laparotomized to take out the thoracic aorta. That aorta was cut into a ring of a length of about 3 mm in a conventional manner (Asano, T., et al., J. Pharmacol. Exp. Ther., 241, pp. 1033–1040 (1987)) and hung in 10-ml organ bath filled with Krebs-Hensright nutrient solution bubbled with a mixed gas of 95% O2 and 5% CO2. One end of the blood vessel was connected to an isometric transducer (FD Pickup TB-912T, Nihon Kohden) and applied with 2.5 g of resting tension, and constriction and relaxation reactions of the aorta were recorded. The aorta was constricted with phenylephrine (1 μM, Sigma) and then added with a test compound (1 μM), and the vasoconstriction inhibitory action thereof was observed. The vasoconstriction inhibitory actions of the test compounds are shown in Table 6 mentioned below as the relaxation ratios, which are based on the vasoconstriction with phenylephrine immediately before the addition of the test compound taken as 100%.

In experiment [4] the test system is OVA-induced respiratory tract inflammation. As to the kind of experiment: Respiratory tract inflammation suppressing action (Test Example 6). It is filed as in vivo, BALB/c female mice. To be noted: result in words; OVA mice. As to the method: According to the method described in Henderson, W. R., et al., Am. J. Respir. Cric. Care Med., 165(1), 108–116 (2002), suppressing action on bronchial inflammation was confirmed. BALB/c female mice (7-week old) were used for the test, each group consisting of 7 mice, and the control group consisting of 11 or 12 mice. The mice were intraperitoneally administered with ovalbumin (OVA, 100 ng, Sigma) and 1 mg of aluminum hydroxide for initial immunization, and after 2 weeks, they are subcutaneously administered with 10 ng of OVA as additional immunization. After further 1 week, a test compound was dissolved in water containing 0.5% carboxymethylcellulose and orally administered (30 mg/kg) to the test animals once a day for 5 days. The control group was similarly given only with water containing 0.5% carboxymethylcellulose. After 1 hour, the mice were orally inhaled with 2% OVA for 10 minutes to induce a respiratory tract inflammation. […] After 24 hours, alveoli in the lungs of the test animals were washed with physiological saline, and the total infiltrated white blood cells (WBC) were counted.

Experiment [5] concerns intraocular pressure. Kind of experiment: Intraocular pressure reducing action (Test Example 4). The format is in vivo, Japanese white rabbit. To be noted: for inhibition in vivo at 1 %, 50 µL: Oryctolagus cuniculus, topical, 1% aqueous solution, 50 μl dropped to the left eye, after 2 hours, read-out: Intraocular pressure reducing action (reduction ratio) (%). As to the method:
A Japanese white rabbit having a body weight of about 2 kg was placed in a positioner and naturalized for one week before the experiment. An ophthalmologic local anesthesant (Benoxil) was administered to the left eye, and then intraocular pressure was measured by using a tonometer (Classic 30, Solan). The initial value of the intraocular pressure was measured, then 50 μl of a test compound (1% aqueous solution) was dropped to the left eye, and after 2 hours, the intraocular pressure was measured. The intraocular pressure reducing action of the test compounds is shown in Table 7 mentioned below as ratios (%) of reduction of intraocular pressure based on the initial value of the intraocular pressure.

In experiment [6] the test system is ovalbumin-induced constriction of respiratory tract. As to the kind of experiment: Respiratory tract constriction suppression action (Test Example 3). The note with it: ovalbumin-immunized guinea pigs; test medicament via hind leg vein; 15 minutes after administration. The format is in vivo, Hartley guinea pigs. As to the method: Four-week old Hartley guinea pigs (male) were immunized by intraperitoneal administration of ovalbumin (Sigma, Grade V) in amounts of 1 mg for each animal on the day on which the experiment was started, 3 mg for each animal after 2 days, and 10 mg for each animal after 4 days. Twelve to fourteen days after the final immunization, the ovalbumin-immunized guinea pigs were anesthetized by intraperitoneal administration of about 40 mg/kg of pentobarbital (Somnopentyl), and the tracheas were taken out. Subsequently, a cannula (SP-110, Natsume) was inserted into each trachea, and one end of the cannula was connected to an artificial respirator (Model-b83, Harvard). The aeration conditions were set at 6 ml per kilogram and 60 times per 1 minute. Further, a cannula for medicament administration (JMS wing needle 23G 3/4) was inserted into a hind leg vein. Myoblock (Organon Technica) was administered in an amount of 0.5 mg/kg from the cannula inserted into the hind leg vein to stop the spontaneous breathing, and after 2 or 3 minutes, 0.3 mg/kg of ovalbumin was administered to induce constriction of respiratory tract. The increase of airway resistance value 2 minutes after the induction (measurement apparatuses: pressure transducer TR-603T, respiratory amplifier AR-601G, and recorder RTA-3100, Nihon Kohden Corp.) was confirmed to be above 80 cm H2O or higher, and then, a solution of a test medicament was administered from the cannula inserted into the hind leg vein, and the airway resistance value was continuously measured for 15 minutes after the administration to determine the effect.

The target in experiment [7] is T1, myosin light chain phosphorylation enzyme (MLCK) (Gallus gallus, UniProt P11799).
T1 construct: purified from chicken gizzard smooth muscle by a conventional method; from tissue; host or cells: chicken gizzard smooth muscle
As to the kind of experiment: Action on myosin light chain phosphorylation enzyme (MLCK) activity. The format is biochemical, chicken. The note with it: for inhibition of MLCK: result in words; for IC50: MLCK from chicken gizzard smooth muscle, ELISA, 100 μM ATP, read-out: Myosin light chain phosphorylation enzyme inhibitory action IC50. As to the method:
A myosin light chain phosphorylation enzyme (MLCK) was purified from chicken gizzard smooth muscle by a conventional method (Yoshida, M., et al., J. Biochem., 99, 1027–1036 (1986)). The myosin regulatory light chain as a substrate was purified from the chicken gizzard smooth muscle by a conventional method (Grand, R. J., et al., Biochem. J., 211, 267–272 (1983)). The MLCK activity was measured by ELISA using pLC1 described in Test Example 1 (Sakurada, K., et al., J. Biochem., 115, 18–21 (1994)). The myosin regulatory light chain was diluted in phosphate-buffered saline (PBS, Sigma) to a concentration of 5.0 µg/ml, added to 96-well Immunoplate (Nunc) in a volume of 100 μl per well and left stand overnight at 4° C. Each well was washed with PBS, and 25 mM Tris/HCl buffer containing 100 μM ATP, 3 mM MgCl2, 1 mM CaCl2, 100 ng/ml of calmodulin (Sigma) and 100 ng/ml of MLCK (pH 7.4, Buffer A) was added to each well and incubated at 30° C. for 10 minutes. In a volume of 100 μl each of 20% aqueous phosphoric acid solution was added to each well to terminate the enzymatic reaction. Each well was washed with 25 mM Tris/HCl buffer (TTBS) containing 0.1% Tween 20, and then 100 μl each of pLC1 described in Test Example 1 was added to each well and incubated at room temperature for 90 minutes.
Each well was washed with TTBS, and then 100 μl of the HRP-labeled rabbit anti-mouse IgG antibodies (Bio-Rad) were added to each well and incubated at room temperature for 90 minutes. Each well was washed with TTBS, and then 25 mM citrate buffer (pH 5.0) containing orthophenylenediamine (Sigma) as a substrate of HRP and aqueous hydrogen peroxide (0.03%) was added in a volume of 100 μl per well and incubated at room temperature for 5 minutes. 50 μl of 4 N sulfuric acid was added to each well to terminate the reaction, and then absorbance was measured by using an immunoplate reader (Bio-Rad).
On the technique in general: An ELISA detects its analyte on a solid surface through an enzyme-linked reagent.

Take `CC1CNCCN1S(=O)(=O)c1cccc2cnccc12` (centres unmarked) [Example H-7, 1-(5-Isoquinolinesulfonyl)-2-methylpiperazine]: the IC50 in experiment [1] is 80 µM; in experiment [2], > 40 µM. Further, the “Vasoconstriction inhibitory action (relaxation ratio) (%)” value in experiment [3] (test compound 1 μM, aorta constricted with phenylephrine 1 μM) was 22.0%.

As for `Cc1cncc2cccc(NC3CCNCC3)c12.Cl` [Example 106, 4-(4-Methyl-5-isoquinolyl)aminopiperidine hydrochloride], in experiment [4], the “infiltrated white blood cell number” value is given as “decrease of infiltrated white blood cell number”. Moreover, in experiment [5], the inhibition in vivo at 1 %, 50 µL came out at 31.3%. In experiment [6], the “constriction of respiratory tract (airway resistance value)” value (“constriction of respiratory tract” below) was “significantly improved the constriction of respiratory tract”. The “inhibition of MLCK” value in experiment [7] is reported as “did not inhibit MLCK”. The vasoconstriction inhibitory action entry in experiment [3] is “significant vasoconstriction inhibitory action”.

For the molecule `Cl.OCCN1CCC(Nc2cccc3cnccc23)CC1` [Example 144, 1-(2-Hydroxyethyl)-4-(5-isoquinolyl)aminopiperidine hydrochloride], the “intraocular pressure reducing activity” value in experiment [5] (result in words, rabbit) was “significant intraocular pressure reducing activity”. Besides, the “constriction of respiratory tract” value in experiment [6] is reported as “significantly improved the constriction of respiratory tract”. The “inhibition of MLCK” value in experiment [7] is on record as “did not inhibit MLCK”.

Take `Cl.c1cc(NC2CCNCC2)c2ccncc2c1` [Example 20, 4-(5-Isoquinolyl)aminopiperidine hydrochloride]: in experiment [5], the inhibition in vivo at 1 %, 50 µL stood at 35.7%. Further, the “constriction of respiratory tract” value in experiment [6] was “significantly improved the constriction of respiratory tract”. The IC50 in experiment [7] was > 100 µM.

In the case of `Cl.NCCCN(CCc1cccs1)S(=O)(=O)c1cccc2cnccc12` [Example 2, N-[(5-Isoquinolyl)sulfonyl]-N-[2-(2-thienyl)ethyl]-1,3-propylenediamine hydrochloride], in experiment [6], the “constriction of respiratory tract” value is listed as “significantly improved the constriction of respiratory tract”. In addition, the IC50 in experiment [7] is > 50 µM. Further, in experiment [3], the vasoconstriction inhibitory action entry is given as “significant vasoconstriction inhibitory action”.

These data come from patent publication US7094789B2, “5-substituted isoquinoline derivatives” (Asahi Kasei Pharma Corporation, priority 2002, dated 2006).
